Experimental data published in patent US9717678B2, “Delivery systems for improving oral bioavailability of Fenobam, its hydrates, and salts” (MURTY PHARMACEUTICALS, INC., priority 2011, dated 2017).
≈ marks a conversion by molar mass, not a printed value.

Experiment: Equilibrium solubility by HPLC
Assay type: physicochemical
[1] = comparative equilibrium solubility (Table 2), solvent 0.1 N HCl
[2] = comparative equilibrium solubility (Table 2), solvent PEG 400
[3] = comparative equilibrium solubility (Table 2), solvent Phosphate Buffer, pH 7.4

Solubility [1] [µg/mL] | Solubility [2] [µg/mL] | Solubility [3] [µg/mL] | Solubility (equilibrium solubility, solvent 0.1 N HCl) [µg/mL] | Solubility (equilibrium solubility, solvent 10% Cremophor RH 40) [µg/mL] | Solubility (equilibrium solubility, solvent 10% Polysorbate 80) [µg/mL] | Solubility (equilibrium solubility, solvent 20% Polyethylene Glycol (PEG) 400) [µg/mL] | Solubility (equilibrium solubility, solvent 20% Propylene Glycol) [µg/mL] | Solubility (equilibrium solubility, solvent 30% HP-Beta-Cyclodextrin) [µg/mL] | Solubility (equilibrium solubility, solvent Acetate Buffer, pH 4.0) [µg/mL] | Solubility (equilibrium solubility, solvent Ethanol) [µg/mL] | Solubility (equilibrium solubility, solvent Phosphate Buffer, pH 7.4) [µg/mL] | Solubility (equilibrium solubility, solvent Polyethylene Glycol (PEG) 400) [µg/mL] | Solubility (equilibrium solubility, solvent Propylene Glycol) [µg/mL] | SMILES
308 | 34500 | 39 | – | – | – | – | – | – | – | – | – | – | – | CN1CC(=O)N/C1=N\C(=O)Nc1cccc(Cl)c1.O [Fenobam Monohydrate]
303 | 5650 | 27 | – | – | – | – | – | – | – | – | – | – | – | CN1CC(=O)N=C1NC(=O)Nc1cccc(Cl)c1.O=S(=O)(O)O [Fenobam Sulfate]
392 (≈ 1470 µM) | 24400 (≈ 91500 µM) | 33 (≈ 124 µM) | 392 (≈ 1470 µM) | 643 (≈ 2410 µM) | 1190 (≈ 4460 µM) | 124 (≈ 465 µM) | 65 (≈ 244 µM) | 2190 (≈ 8210 µM) | 25 (≈ 93.7 µM) | 2900 (≈ 10900 µM) | 33 (≈ 124 µM) | 24400 (≈ 91500 µM) | 4460 (≈ 16700 µM) | CN1CC(=O)NC1=NC(=O)Nc1cccc(Cl)c1 [Fenobam]
